Among the data in US20080233127A1, “IMIDAZOLOPYRIMIDINE ANALOGS AND THEIR USE AS PI3 KINASE AND MTOR INHIBITORS” (Wyeth, priority 2007, published 2008) are IC50 values, retold here.

One assay addresses T1, human TOR (Homo sapiens, UniProt P42345).
T1 construct: FLAG
The assay can be described thus: mTOR enzyme assay (DELFIA format, purified FLAG-TOR, His6-S6K substrate). In kind it is biochemical. The conditions noted are these: 100 μM ATP, 1.25 μM His6-S6K, 2 hours at room temperature; read-out: TOR Kinase Median IC50.

The next assay deals with PI3 Kinase. The assay can be described thus: PI3K fluorescence polarization assay. The class given is biochemical. The note with it: 25 μM ATP, diC8-PI(4,5)P2 substrate, 1 hour at 25° C.; read-out: PI3 Kinase Median IC50. A general note: Polarisation of emitted light reports the rotation of a fluorescent probe.

Method for PI3 Kinase: Nunc 384 well black polypropylene fluorescent plates are used for PI3K assays. Reactions are quenched by the addition of EDTA to a final concentration of 10 mM. Final reaction volumes are 10 μl. […] Reactions are allowed to proceed for one hour at 25° C. After 1 hour, GST-tagged GRP1 (general receptor for phosphoinositides) PH domain fusion protein is added to a final concentration of 100 nM, and BODIPY-TMRI(1,3,4,5)P4 (Echelon) is also added to a final concentration of 5 nM. Final sample volumes are 25 μl with a final DMSO concentration of 0.8%. Assay Plates are read on Perkin-Elmer Envision plate readers with appropriate filters for Tamra [BODIPY-TMRI(1,3,4,5)P4].

For the compound `OCc1cccc(-c2nc(N3CCOCC3)c3ncn(C4CCN(Cc5ccccc5F)CC4)c3n2)c1` [Compound 45, (3-{9-[1-(2-fluorobenzyl)piperidin-4-yl]-6-morpholin-4-yl-9H-purin-2-yl}phenyl)methanol], the IC50 is 160 nM at human TOR and 42 nM on PI3 Kinase.
As for `Oc1cccc(-c2nc(N3CCOCC3)c3ncn(C4CCN(Cc5ccc(F)nc5)CC4)c3n2)c1` [Compound 84, 3-(9-{1-[(6-fluoropyridin-3-yl)methyl]piperidin-4-yl}-6-morpholin-4-yl-9H-purin-2-yl)phenol], the IC50 was determined as 310 nM at human TOR and 70 nM on PI3 Kinase.
For the compound `CCNC(=O)Nc1ccc(-c2nc(N3CCOCC3)c3ncn(C4CCN(Cc5cccnc5)CC4)c3n2)cc1` [Compound 90, 1-ethyl-3-(4-(6-morpholino-9-(1-(pyridin-3-ylmethyl)piperidin-4-yl)-9H-purin-2-yl)phenyl)urea], the results for the IC50 on human TOR and on PI3 Kinase were 12 nM and 1350 nM, respectively.
For `Oc1cncc(-c2nc(N3CCOCC3)c3ncn(C4CCN(Cc5ccc[nH]5)CC4)c3n2)c1` [Compound 39, 5-{6-morpholin-4-yl-9-[1-(1H-pyrrol-2-ylmethyl)piperidin-4-yl]-9H-purin-2-yl}pyridin-3-ol], in that order: 940 nM and 31 nM.
For the compound `CC(C)(C)OC(=O)N1CCC(n2cnc3c(N4CCOCC4)nc(-c4cccc(O)c4)nc32)CC1` [Compound 57, tert-butyl 4-{2-(3-hydroxyphenyl)-6-morpholino-9H-purin-9-yl}piperidine-1-carboxylate], the IC50 is 270 nM on human TOR and 288 nM at PI3 Kinase.
Turning to `OCc1cccc(-c2nc(N3CCOCC3)c3ncn(C4CCN(Cc5cncc(F)c5)CC4)c3n2)c1` [Compound 66, [3-(9-{1-[(5-fluoropyridin-3-yl)methyl]piperidin-4-yl}-6-morpholin-4-yl-9H-purin-2-yl)phenyl]methanol], the IC50 was greater than 4000 nM on human TOR and 177 nM on PI3 Kinase.
As to `COCOc1cncc(-c2nc(N3CCOCC3)c3ncn(C4CCN(C(=O)OC(C)(C)C)CC4)c3n2)c1` [Compound 58, tert-butyl-4-{2-[5-(methoxymethoxy)pyridin-3-yl]-6-morpholin-4-yl-9H-purin-9-yl}piperidine-1-carboxylate], the IC50 is greater than 4000 nM on human TOR and 2090 nM on PI3 Kinase.
On the same counts, the results for `OCc1cccc(-c2nc(N3CCOCC3)c3ncn(C4CCN(Cc5ccc(F)nc5)CC4)c3n2)c1` [Compound 61, [3-(9-{1-[(6-fluoropyridin-3-yl)methyl]piperidin-4-yl}-6-morpholin-4-yl-9H-purin-2-yl)phenyl]methanol] are 710 nM and 47 nM.
On the same counts, the results for `OCc1ccc(-c2nc(N3CCOCC3)c3nc[nH]c3n2)cc1` [Compound 5, [4-(6-morpholin-4-yl-9H-purin-2-yl)phenyl]methanol] are 4500 nM and 3750 nM.
For `OCc1cncc(-c2nc(N3CCOCC3)c3ncn(C4CCN(Cc5ccccc5)CC4)c3n2)c1` [Compound 35, {5-[9-(1-benzylpiperidin-4-yl)-6-morpholin-4-yl-9H-purin-2-yl]pyridin-3-yl}methanol], in that order: 1000 nM and 63 nM.
With `Oc1cncc(-c2nc(N3CCOCC3)c3ncn(C4CCN(Cc5ccccc5)CC4)c3n2)c1` [Compound 87, 5-[9-(1-benzylpiperidin-4-yl)-6-morpholin-4-yl-9H-purin-2-yl]pyridin-3-ol], the values for the IC50 at human TOR and at PI3 Kinase were 550 nM and 87 nM, respectively.
For `c1nc2c(N3CCOCC3)nc(-c3ccsc3)nc2[nH]1` [Compound 2, 6-morpholin-4-yl-2-(3-thienyl)-9H-purine], in that order: 3900 nM and 3290 nM.
For `OCc1cccc(-c2nc(N3CCOCC3)c3ncn(C4CCN(Cc5ccc(Cl)nc5)CC4)c3n2)c1` [Compound 63, [3-(9-{1-[(6-chloropyridin-3-yl)methyl]piperidin-4-yl}-6-morpholin-4-yl-9H-purin-2-yl)phenyl]methanol], in that order: 650 nM and 45 nM.
In the case of `Oc1cccc(-c2nc(N3CCOCC3)c3ncn(C4CCN(Cc5ccccn5)CC4)c3n2)c1` [Compound 77, 3-{6-morpholin-4-yl-9-[1-(pyridin-2-ylmethyl)piperidin-4-yl]-9H-purin-2-yl}phenol], the IC50 was 290 nM at human TOR and 156 nM on PI3 Kinase.
For `CC(C)(C)OC(=O)N1CCC(n2cnc3c(N4CCOCC4)nc(-c4cccc(CO)c4)nc32)CC1` [Compound 59, tert-butyl 4-{2-[3-(hydroxymethyl)phenyl]-6-morpholin-4-yl-9H-purin-9-yl}piperidine-1-carboxylate], in that order: 1400 nM and 95 nM.
As for `c1nc2c(N3CCOCC3)nc(-c3ccc4c(c3)OCO4)nc2[nH]1` [Compound 7, 2-(1,3-benzodioxol-5-yl)-6-morpholin-4-yl-9H-purine], the IC50 came to 8900 nM at human TOR and 1230 nM on PI3 Kinase.
Regarding `c1cc2cc(-c3nc(N4CCOCC4)c4nc[nH]c4n3)ccc2[nH]1` [Compound 6, 2-(1H-indol-5-yl)-6-morpholin-4-yl-9H-purine], the IC50 on human TOR worked out at 180 nM; on PI3 Kinase it was 2750 nM.
In the case of `Oc1cncc(-c2nc(N3CCOCC3)c3ncn(C4CCNCC4)c3n2)c1` [Compound 36, 5-(6-morpholin-4-yl-9-piperidin-4-yl-9H-purin-2-yl)pyridin-3-ol], the figures for the IC50 at human TOR and at PI3 Kinase were 970 nM and 14 nM, respectively.
For the compound `Clc1cc(-c2nc(N3CCOCC3)c3nc[nH]c3n2)ccc1OCc1ccccc1` [Compound 24, 2-(4-Benzyloxy-3-chloro-phenyl)-6-morpholin-4-yl-9H-purine], the values for the IC50 on human TOR and at PI3 Kinase were greater than 20000 nM and 4530 nM, respectively.
Turning to `COc1cc(COc2cccc(-c3nc(N4CCOCC4)c4nc[nH]c4n3)c2)cc(OC)c1` [Compound 23, 2-[3-(3,5-Dimethoxy-benzyloxy)-phenyl]-6-morpholin-4-yl-9H-purine], the IC50 on human TOR came to 16500 nM; on PI3 Kinase, 6200 nM.
Turning to `c1csc(-c2nc(N3CCOCC3)c3nc[nH]c3n2)c1` [Compound 1, 6-morpholin-4-yl-2-(2-thienyl)-9H-purine], the IC50 at human TOR is 2800 nM; on PI3 Kinase, 724 nM.
For `Oc1ccc(-c2nc(N3CCOCC3)c3nc[nH]c3n2)cc1` [Compound 4, 4-(6-morpholin-4-yl-9H-purin-2-yl)phenol], the IC50 is 450 nM at human TOR and 2680 nM on PI3 Kinase.
On the same counts, the results for `OCc1cccc(-c2nc(N3CCOCC3)c3ncn(C4CCN(Cc5ccc(F)c(F)c5)CC4)c3n2)c1` [Compound 62, (3-{9-[1-(3,4-difluorobenzyl)piperidin-4-yl]-6-morpholin-4-yl-9H-purin-2-yl}phenyl)methanol] are 1200 nM and 42 nM.
On the same counts, the results for `O=Cc1cncc(-c2nc(N3CCOCC3)c3ncn(C4CCN(Cc5ccccc5)CC4)c3n2)c1` [Compound 34, 5-[9-(1-benzylpiperidin-4-yl)-6-morpholin-4-yl-9H-purin-2-yl]nicotinaldehyde] are 170 nM and 77 nM.
Regarding `OCc1cccc(-c2nc(N3CCOCC3)c3ncn(C4CCN(Cc5ccco5)CC4)c3n2)c1` [Compound 52, (3-{9-[1-(2-furylmethyl)piperidin-4-yl]-6-morpholin-4-yl-9H-purin-2-yl}phenyl)methanol], the IC50 at human TOR stood at 490 nM; at PI3 Kinase, 46 nM.
For `Oc1cncc(-c2nc(N3CCOCC3)c3ncn(C4CCN(Cc5ccc(F)nc5)CC4)c3n2)c1` [Compound 41, 5-{9-[1-(6-fluoro-pyridin-3-ylmethyl)-piperidin-4-yl]-6-morpholin-4-yl-9H-purin-2-yl}-pyridin-3-ol], in that order: 570 nM and 94 nM.
For `CN(C)c1ccc(CN2CCC(n3cnc4c(N5CCOCC5)nc(-c5cccc(O)c5)nc43)CC2)c2ccccc12` [Compound 83, 3-[9-(1-{[4-(dimethylamino)-1-naphthyl]methyl}piperidin-4-yl)-6-morpholin-4-yl-9H-purin-2-yl]phenol], in that order: 360 nM and 83 nM.
For `OCc1cccc(-c2nc(N3CCOCC3)c3ncn(C4CCN(Cc5ccc(F)cc5F)CC4)c3n2)c1` [Compound 49, (3-{9-[1-(2,4-difluorobenzyl)piperidin-4-yl]-6-morpholin-4-yl-9H-purin-2-yl}phenyl)methanol], in that order: 2050 nM and 44 nM.
Turning to `OCc1cccc(-c2nc(N3CCOCC3)c3ncn(C4CCN(Cc5cccc(Br)n5)CC4)c3n2)c1` [Compound 71, [3-(9-{1-[(6-bromopyridin-2-yl)methyl]piperidin-4-yl}-6-morpholin-4-yl-9H-purin-2-yl)phenyl]methanol], the concentration for half-maximal inhibition (IC50) at human TOR was determined as 580 nM; on PI3 Kinase, 50 nM.
For `COc1ccc(CN2CCC(n3cnc4c(N5CCOCC5)nc(-c5cccc(CO)c5)nc43)CC2)cn1` [Compound 64, [3-(9-{1-[(6-methoxypyridin-3-yl)methyl]piperidin-4-yl}-6-morpholin-4-yl-9H-purin-2-yl)phenyl]methanol], in that order: greater than 4000 nM and 168 nM.
As to `CC(=O)N1CCC(n2cnc3c(N4CCOCC4)nc(-c4cccc(CO)c4)nc32)CC1` [Compound 26, 1-(4-(2-(3-(hydroxymethyl)phenyl)-6-morpholino-9H-purin-9-yl)piperidin-1-yl)ethanone], the IC50 stood at 2100 nM at human TOR and 189 nM on PI3 Kinase.
For `Oc1cncc(-c2nc(N3CCOCC3)c3nc[nH]c3n2)c1` [Compound 43, 5-(6-morpholin-4-yl-9H-purin-2-yl)pyridin-3-ol], in that order: 620 nM and 11 nM.
`OCc1cccc(-c2nc(N3CCOCC3)c3ncn(C4CCN(Cc5c(F)cc(F)cc5F)CC4)c3n2)c1` [Compound 60, (3-{6-morpholin-4-yl-9-[1-(2,4,6-trifluorobenzyl)piperidin-4-yl]-9H-purin-2-yl}phenyl)methanol]: the IC50 at human TOR was determined as 3300 nM; at PI3 Kinase, 194 nM.

Broadly, the IC50 is the concentration needed to halve the response being measured.
